Measurements taken from patent US9867794B2, “Regulation of osteopontin” (Pathologica LLC, priority 2007, dated 2018).
Where “and” joins values, the source holds several entries; their conditions need not be identical. Identical values can stand only once.

Key:
OPN RNA = assay: OPN production inhibition assay in un-stimulated PBMC cultures, OPN RNA; format: cell-based; details: 10 μM, harvested 1, 3 and 6 days
Experimental: 10 μM of each drug was added to un-stimulated PBMC cultures at time=0 and cells were harvested 1,3, and 6 days later for quantitative OPN RNA and protein production analysis.

GPR43 = assay: QRT-PCR in CD14/CD16-separated cell fractions, GPR43 RNA; format: cell-based, human; details: CD14/CD16++ macrophages, 10 μM MGBG, p=0.03
Experimental: The changes induced by MGBG in different blood cell types were determined for osteopontin and adenosine deaminase and 7 other genes. For this experiment, blood samples were obtained from 6 healthy controls (3 men/3 women from 20 to 55 years of age) and mononuclear cells were isolated via Percoll gradient centrifugation. The cells were then incubated for 3 hours in RPMI media plus 10% fetal bovine serum at 37 C. At that point MGBG was added to 10 μM to half of each sample and then the cells were incubated at 37 C for 20 more hours. The cells were then bound to magnetic beads coated with antibodies to human CD16. Bound cells (CD16 expressing) were separated from unbound cells using an AutoMACs according to manufacturer's instructions (Miltenyi, Auburn Calif.). Then CD16+ cells are released from the magnetic beads and both the CD16+ and CD16− cells are combined with magnetic beads coated with antibodies to human CD14. Antibody bound and unbound cells were then separated using the AutoMACs machine. […] Cells that neither express CD16 nor CD14 (the −/− Cells). This is mostly T lymphocytes; 2. Cells that only express CD16. This includes contaminating granulocytes not removed by Percoll centrifugation and CD16+ monocytes with very low CD14 expression; 3. […] After separation, cells of each fraction are washed with PBS and the number of viable cells determined by trypan blue exclusion. […]

Osteopontin = assay: Macrophage Osteopontin production in migration assays; format: cell-based; details: 10 μM MGBG; from >200 ng/mL without drug
Experimental: (§1) Additionally, cells being targeted by MGBG were investigated. […] To elucidate the effects of MGBG and OPN on cell motility, migration assays were conducted. MGBG at 10 μM inhibited macrophage Osteopontin production from >200 ng/mL to nondetectable levels while simultaneously inhibiting HeLa cell invasion into a Matrigel matrix.

ADA = assay: Microarray analysis of mononuclear cells, ADA; format: cell-based, human; details: for ADA signal +, Average: 10 μM MGBG
Experimental: (§2) Blood samples were obtained from HIV infected patients (N=9) with positive viral load and reduced CD4 counts, and non-HIV infected, healthy controls (N=6). Blood was collected into heparin anticoagulant tubes and mononuclear cells were isolated by Percoll gradient centrifugation. The cells from each sample were split into 2: one-half receives MGBG at concentration of 10 μM and the other half received no treatment. All samples were then cultured overnight in RPMI media with 10% fetal bovine serum at 37° C. under non-adherent conditions. The next day cells were collected by centrifugation, washed one time with PBS, and lysed by resuspension in TRIZOL, and total RNA was prepared according to manufacturer's instructions (Invitrogen, Carlsbad, Calif.). […] The RNA was then amplified for microarray analysis using a 2 cycle amplification protocol according to the manufacturer's instructions (Affymetrix, Santa Clara, Calif.). The amplified RNAs were then hybridized to Human Genome U133 plus 2.0 microarrays (Affymetrix) and expression data was obtained using an Affymetrix scanner and GCOS protocols. Microarray data was analyzed with GeneSpring Microarray Suite. Results were normalized using a set of 100 probe sets determined by the manufacturer to have relatively invariant expression across most cell types.

HeLa cell = assay: Migration assay, HeLa cell invasion into a Matrigel matrix; format: cell-based; details: 10 μM MGBG
Experimental: as §1

IL24 = assay: Microarray analysis of mononuclear cells, IL24; format: cell-based, human; details: for IL24 signal +, Average: 10 μM MGBG
Experimental: as §2

IL1RN = assay: Quantitative RT-PCR, unsorted mononuclear cells, IL1RN; format: cell-based, human
Experimental: (§3) To evaluate the effect of MGBG on gene expression, blood samples were obtained from patients (N=18, 10 HIV-infected and 8 Healthy Controls). Mononuclear cells were isolated via Percoll gradient centrifugation. The cells were split into two tubes, one treated with 10 μM of MGBG and the other non-treated. The cells were then cultured overnight in RPMI media plus 10% fetal bovine serum at 37 C under non-adherent conditions, collected, lysed using Trizol solution, and total RNA prepared according to manufacturer's instructions (Invitrogen, Carlsbad, Calif.).
(§4) Approximately 200 ng of total RNA prepared from each sample was converted to cDNA using the First Strand cDNA Synthesis Kit for RT-PCR [AMV] kit (Roche Applied Diagnostics, Indianapolis, Ind.) according to manufacturer's instructions. Around 5 ng of cDNA sample was then used for PCR performed on a LightCycler (Roche Applied Diagnostics, Indianapolis, Ind.) using the LightCycler FastStart DNA Master SYBR Green I kit. PCR conditions are as follows: 1 cycle of denaturation at 95° C. for 10 minutes, followed by 45 cycles of 95° C. for 10 seconds, 68° C. for 10 seconds, and 72° C. for 16 seconds.
(§5) The sequences of gene-specific primers evaluated are listed below. All samples were also amplified with the human β-actin LightCycler-Primer set (Roche Diagnostics).

CD14/16++ cells = assay: Yield of CD14/16++ cells in culture, flow cytometry; format: cell-based, human; details: 10 μM MGBG; for % Reduction 14/16, Average: 5th day
SPP1 = assay: Quantitative RT-PCR, unsorted mononuclear cells, SPP1; format: cell-based, human
Experimental: as §3, §4, §5

SGNE1 = assay: Microarray analysis of mononuclear cells, SGNE1; format: cell-based, human; details: for SGNE1 signal +, Average: 10 μM MGBG
Experimental: as §2

FCGR1a = assay: Microarray analysis of mononuclear cells, FCGR1a; format: cell-based, human; details: for FCGR1a signal +, Average: 10 μM MGBG
Experimental: as §2

[1] = average of control samples (C6-, M6-177)
[2] = 10 μM, individual donor samples
[3] = presence of 10 μM MGBG overnight, individual donor samples
[4] = 10 μM MGBG overnight, untreated vs treated, negative = fold reduction, individual samples
[5] = 10 μM MGBG, all unsorted samples

With `CC(/C=N/NC(=N)N)=N\NC(=N)N` [MGBG, 1,1′ [methylethanediylidene]dinitrilodiguanidine] the “OPN RNA expression” value (OPN RNA) was “inhibited in a time dependant manner”, the “GPR43 expression median signal relative to no MGBG” value (GPR43) was 2.4 and the “macrophage Osteopontin production” value (Osteopontin) was “nondetectable”. The “ADA signal +, Average” value (ADA; average of HIV samples) was 4029, the “ADA signal +, Average” value (ADA; [1]) was 5520 and the “ADA fold change, MGBG/ON ratio (up-regulation)” value (ADA; [2]) was 3.2 fold (2×) and 2.9 fold and 5.6 fold and 3.6 fold (2×) and 3.7 fold and 4.2 fold and 51.2 fold and 14.6 fold and 5.9 fold and 2.0 fold and 18.3 fold and 2.3 fold and 22.3 fold. The “ADA regulation by MGBG” value (ADA; all samples tested) was “consistently up-regulated”, the “ADA signal +” value (ADA; [3]) was 769 and 6724 and 6874 and 1964 and 7488 and 5384 and 2900 and 5895 and 5781 and 6428 and 6731 and 1845 and 4290 and 832 and 5472 and the “HeLa cell invasion into a Matrigel matrix” value (HeLa cell) was “inhibiting”. For the same compound, the “IL24 signal +, Average” value (IL24; average of HIV samples) was 560, the “IL24 signal +, Average” value (IL24; [1]) was 598 and the “IL24 fold change, MGBG/ON ratio (up-regulation)” value (IL24; [2]) was 5.4 fold and 1.2 fold (2×) and 3.3 fold and 0.3 fold and 0.5 fold and 0.2 fold and 5.5 fold and 2.6 fold and 4.5 fold (2×) and 0.03 fold and 192.1 fold and 0.6 fold and 26.0 fold. The “IL24 regulation after MGBG exposure” value (IL24; HIV infected samples but not controls) was “upregulated”, the “IL24 signal +” value (IL24; [3]) was 111 and 85 and 1940 and 178 and 375 and 578 and 206 and 1549 and 925 and 163 and 166 and 350 and 1364 and 59 and 577 and the “Fold change IL1RN by QRT-PCR” value (IL1RN; [4]) was −10.41 fold and −3.73 fold and 1.12 fold and −1.73 fold and −1.36 fold and −14.22 fold and −1.87 fold and −1.78 fold and 8.63 fold and −2.27 fold and 1.59 fold and −8.17 fold and −19.56 fold and −1.77 fold and −4.92 fold and −2.31 fold and −8.28 fold and −17.75 fold. For the same compound, the “Fold change IL1RN, AVERAGE” value (IL1RN; [5]) was −4.9 fold, the “Fold change IL1RN, MAX” value (IL1RN; [5]) was 8.6 fold and the “Fold change IL1RN, MIN” value (IL1RN; [5]) was −19.6 fold. For the same compound, the “IL1RN % >2 fold Changed” value (IL1RN; share of samples, 10 μM MGBG) was 55%, the “samples with IL1RN down-regulated” value (IL1RN; unsorted samples) was 15 out of 18 and the “% Reduction 14/16” value (CD14/16++ cells; 5th day of culture, individual donor samples (HIV or healthy)) was 26% and 53% and 91% and 54% and 61% and <0% and 71%. The “% Reduction 14/16, Average” value (CD14/16++ cells; average of HIV samples) was 60.3%, the “% Reduction 14/16, Average” value (CD14/16++ cells; average of healthy samples) was 57.5% and the “Fold change SPP1 by QRT-PCR” value (SPP1; [4]) was −20.11 fold and −83.87 fold and −6.59 fold and −1.30 fold and −8.82 fold and −95.67 fold and −7.89 fold and −1.95 fold and −46.21 fold and −5.90 fold and −2.11 fold and −6.15 fold and −1.28 fold and −467.88 fold and −18.90 fold (2×) and −300.25 fold and −2.14 fold. The “Fold change SPP1, AVERAGE” value (SPP1; [5]) was −60.9 fold, the “Fold change SPP1, MAX” value (SPP1; [5]) was −1.3 fold and the “Fold change SPP1, MIN” value (SPP1; [5]) was −467.9 fold. The “SPP1 fold changes between the untreated and the treated” value (SPP1; certain unsorted samples) was “up to 300 fold”, the “SPP1 % >2 fold Changed” value (SPP1; share of samples, 10 μM MGBG) was 83% and the “SGNE1 signal +, Average” value (SGNE1; average of HIV samples) was 23. The “SGNE1 signal +, Average” value (SGNE1; [1]) was 13, the “SGNE1 fold change, ON/MGBG ratio (down-regulation)” value (SGNE1; [2]) was 3.3 fold and 7.4 fold and 1.9 fold and 14.4 fold and 53.3 fold and 4.7 fold and 9.3 fold and 58.8 fold and 2.4 fold and 3.0 fold and 45.5 fold and 159.8 fold and 10.1 fold and 63 fold and 0.8 fold and the “samples with 2 fold or greater reductions in SGNE1 signal” value (SGNE1; of the 15 samples evaluated) was 13. The “SGNE1 signal +” value (SGNE1; [3]) was 17 and 7 and 10 and 13 (3×) and 12 and 2 (2×) and 3 and 45 and 14 and 8 and 79 and 44, the “FCGR1a signal +, Average” value (FCGR1a; average of HIV samples) was 439 and the “FCGR1a signal +, Average” value (FCGR1a; [1]) was 608. The “FCGR1A fold change, ON/MGBG ratio (down-regulation)” value (FCGR1a; [2]) was 9.2 fold and 1.3 fold and 0.3 fold (3×) and 0.9 fold (2×) and 0.1 fold and 4.3 fold and 2.7 fold and 2.5 fold and 2.2 fold and 0.4 fold and 12.3 fold and 1.0 fold, the “samples with FCGR1A down-regulated more than 2 fold” value (FCGR1a; HIV samples) was 6 of 9 and the “FCGR1a signal +” value (FCGR1a; [3]) was 415 and 461 and 59 and 800 and 1561 and 136 and 51 and 612 and 53 and 1362 and 1435 and 264 and 33 and 14 and 347.
